Structures can show the parent of a compound that is named as a salt. Where two headings read alike, the source gives them in different places.
Legend:
C57BL/6JOlaHsd mice [1] = assay type: in vivo; settings: for DOI-induced repetitive head twitches: dose not given
C57BL/6JOlaHsd mice [2] = experiment: Marble burying test (compulsive behavior); assay type: in vivo; settings: age 6 weeks, one hour after a single injection
Procedure: Mice were habituated to the test room for 1 h. A mouse was injected with DOI as above and then placed in the experimental cage (white plastic 36×24.5 ×14.5 cm) filled with 5 cm sawdust for 5 min, in the absence of marbles. The mouse was taken out and twenty black glass were arranged 4 by 5 with 7 cm apart and 1 cm apart from the wells of the cage. Each mouse was tested for its marble burying activity for 30 min. Activity was videotaped with EthoVision and buried marbles were counted manually at the end of the experiment (after 30 min). A marble considered as buried when it was sawdust-covered by two third of its volume. Marbles that were moved were also counted.
With a view to study the effect of the JTE-907 and M1 compositions on repetitive behavior, C57BL/6JOlaHsd mice were intraperitoneally injected at age 6 weeks with a single dose of JTE-907 at 0.2-50 mg/kg, M1 at 0.2-50 mg/kg or equivalent vehicle. The number of buried marbles in the burying marble test by each mouse was recorded.

[3] = system: CB2 receptor knockout mice; experiment: DOI-induced head twitch response (HTR) in CB2 receptor knockout mice; assay type: in vivo
Procedure: (§1) • 1. CB2 receptor selective ligands or CB2/SERM ligands were injected intraperitoneally or orally at doses of 0.001 to 100 mg/kg one to two hours before the injection of DOI. In order to test the effect of DOI on head twitch responses, ear scratch and grooming responses, DOI was intraperitoneally injected at a dose of 1 mg/kg.
(§2) After DOI or saline injection, mice were placed in a transparent glass cage 30×40×31 cm divided into squares of 7.5×7.5 cm. Head twitch responses (HTRs) were manually counted by an observer. The HTR in mice is a distinctive behavior that cannot be misplaced with other head movements. After 5 min habitation to the cage the HTR were counted every 3 min for 15 min (a total of 20 min in the cage).
(§3) With a view to further study the effect of the MH compositions on repetitive behavior, CB2 receptor knockout mice (The Jackson Laboratory) were intraperitoneally injected at age 3 weeks or 6 weeks with a single dose of MH at 0.2-50 mg/kg or equivalent vehicle. One hour later mice were intraperitoneally injected a single dose of 1 mg/kg DOI or saline. HTR responses, grooming and ESR responses in mice were recorded.
as §3, with “HU-308” for “MH”, “6-21” for “6”, “responses” for “responses, grooming”

C57BL/6JOlaHsd mice [4] = experiment: Head twitch response after drug alone (saline instead of DOI); assay type: in vivo
Procedure: as §2
(§4) With a view to further study the effect of the MH compositions on repetitive behavior, C57BL/6JOlaHsd mice were intraperitoneally injected at age 3 weeks or 6 weeks with a single dose of MH at 0.2-50 mg/kg or equivalent vehicle. Optionally, one hour later mice received a single injection of saline (i.e. in the absence of DOI to test the effect of MH alone). HTR responses, ESR and grooming responses in mice were recorded.
as §4, with “HU-308” for “MH”, “weeks” for “weeks or 6 weeks”, “vehicle” for “vehicle. Optionally,”, “responses and” for “responses,”, “ESR” for “ESR and grooming”

[5] = 5 mg/kg during postnatal days 5-13; U.S. Pat. No. 9,486,419; cited from earlier work
C57BL/6JOlaHsd mice [6] = experiment: DOI-induced ear scratch response (ESR) / urge-like behavior; assay type: in vivo
Procedure: as §1
(§5) ESR behavior is a measure for urge-like behavior and often preceded HTRs. The ESR is a rapid scratching movement of the head, neck, ears, or other body surfaces by either hindlimbs. The number of ESRs was manually counted. Every ESR was also counted as a grooming. In some experiments, each ESR was considered as a separate episode if the animal moved. In some experiments, each ESR was considered as a separate episode for every ESR.
as §3, with “In order” for “With a view”, “C57BL/6JOlaHsd” for “CB2 receptor knockout”, “mice” for “mice (The Jackson Laboratory)”, “responses” for “responses, grooming”

C57BL/6JOlaHsd mice [7] = experiment: ESR/grooming (urge-like response) after drug alone; assay type: in vivo; settings: doses 1-20 mg/kg i.p., age 6 weeks, no DOI
Source text: as §5
Grooming behavior is a measure for anxiety. Grooming behavior in mice is characterized by licking its fur, groom with the forepaws, or scratch with any limb. Often the mouse will mix all of these grooming behaviors. The number of grooms was manually counted. In some experiments, each grooming behavior was considered as a separate episode if the animal moved its hindlimbs. In some experiments, each grooming behavior was considered as a separate episode for every grooming behavior.
as §4

Sabra mice = experiment: Ultrasonic vocals, SR141716A-induced vocal tic-like behavior; assay type: in vivo
CB2 receptor = CB2 receptor (Homo sapiens, UniProt P34972); settings: Schuehly et al. 2011; read-out: Ki, CB2 receptor ligand; cited from earlier work
[8] = 0.2 mg/kg i.p., age 3 weeks, one hour before DOI
[9] = 5 mg/kg i.p., age 3 weeks, one hour before DOI 1 mg/kg
[10] = 10 mg/kg i.p. single dose, age 3 weeks, one hour before DOI 1 mg/kg i.p.

Sequence of CB2 receptor (P34972 whole entry): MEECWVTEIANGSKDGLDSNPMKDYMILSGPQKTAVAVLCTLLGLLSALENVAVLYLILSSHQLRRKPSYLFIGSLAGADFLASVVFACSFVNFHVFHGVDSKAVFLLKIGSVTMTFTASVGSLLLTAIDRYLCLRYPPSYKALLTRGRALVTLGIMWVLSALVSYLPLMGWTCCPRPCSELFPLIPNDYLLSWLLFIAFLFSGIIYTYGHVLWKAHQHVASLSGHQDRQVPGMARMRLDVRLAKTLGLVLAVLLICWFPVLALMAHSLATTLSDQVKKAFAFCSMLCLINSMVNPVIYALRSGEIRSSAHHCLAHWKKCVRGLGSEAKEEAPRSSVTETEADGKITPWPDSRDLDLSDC

Compound: CCCCCOc1c(OC)ccc2cc(C(=O)NCc3ccc4c(c3)OCO4)c(=O)[nH]c12 [JTE-907, N-(benzo[1,3]dioxol-5-ylmethyl)-7-methoxy-2-oxo-8-pentyloxy-1,2-dihydroquinoline-3-carboxamide]
- DOI-induced HTR frequency (C57BL/6JOlaHsd mice [1]; [8]): reduced
- DOI-induced HTR frequency (C57BL/6JOlaHsd mice [1]; [9]): reduced
- number of buried marbles (C57BL/6JOlaHsd mice [2]; 5 mg/kg i.p.): reduced

Compound: CCN(CC)CCOc1ccc(C(=C(Cl)c2ccccc2)c2ccccc2)cc1 [clomiphene citrate]
- DOI-induced HTR frequency (C57BL/6JOlaHsd mice [1]; [10]): did not significantly reverse

Compound: C=C1CC/C=C(\C)CC[C@@H]2[C@@H]1CC2(C)C [BCP, beta-caryophyllene]
- DOI-induced repetitive head twitches (C57BL/6JOlaHsd mice [1]): able to reduce

Compound: CCCCCCC(C)(C)c1cc(OC)c([C@@H]2C=C(CO)[C@@H]3C[C@H]2C3(C)C)c(OC)c1 [HU-308, [(1R,2R,5R)-2-[2,6-dimethoxy-4-(2-methyloctan-2-yl)phenyl]-7,7-dimethyl-4-bicyclo[3.1.1]hept-3-enyl] methanol]
- DOI-induced HTR frequency (C57BL/6JOlaHsd mice [1]; [8]): reduced
- DOI-induced HTR frequency (C57BL/6JOlaHsd mice [1]; [9]): reduced
- DOI-induced repetitive head twitches (C57BL/6JOlaHsd mice [1]): able to reduce
- DOI-induced HTR frequency in CB2 receptor knockout mice ([3]; 5 mg/kg i.p., male, age 6-21 weeks, DOI 1 mg/kg): significantly reduces
- repetitive behavior (HTR), drug alone (C57BL/6JOlaHsd mice [4]; 0.2 mg/kg i.p., age 3 weeks, saline instead of DOI): significantly increased
- motor tics/head twitches at the age of 12 weeks, open field test [5]: induce abnormal motor tics/head twitches

Compound: O=C(c1ccc(OCCN2CCCCC2)cc1)c1c(-c2ccc(O)cc2)sc2cc(O)ccc12 [raloxifene]
- DOI-induced HTR frequency (C57BL/6JOlaHsd mice [1]; [10]): reduced

Compound: COc1cc(CC(C)N)c(OC)cc1I.Cl (single isomer, unassigned; (-)) [DOI, (−)-1-(2,5-dimethoxy-4-iodophenyl)-2-aminopropane hydrochloride]
- HTR frequency, model mice (DOI) vs control mice (C57BL/6JOlaHsd mice [1]; DOI 1 mg/kg i.p., age 3 weeks): increased
- HTR frequency in CB2 receptor knockout mice after DOI ([3]; DOI 1 mg/kg i.p., age 6 weeks): increased
- ESR frequency, DOI vs control mice (C57BL/6JOlaHsd mice [6]; DOI 1 mg/kg i.p.): increased

Compound: C=CCc1ccc(O)c(-c2ccc(OC)c(CC=C)c2)c1 [MH, 2-(4-Methoxy-3-prop-2-enylphenyl)-4-prop-2-enylphenol]
- DOI-induced HTRs (C57BL/6JOlaHsd mice [1]; 1 mg/kg i.p., age 3 weeks, one hour before DOI 1 mg/kg): reduced
- DOI-induced HTRs (C57BL/6JOlaHsd mice [1]; 1 mg/kg i.p., age 6 weeks, one hour before DOI 1 mg/kg): reduced
- DOI-induced HTR frequency (C57BL/6JOlaHsd mice [1]; 1 mg/kg oral (gavage) in self-emulsifying oral formulation, age 3 weeks, two hours before DOI 1 mg/kg i.p.): significantly reduced
- DOI-induced HTR frequency (C57BL/6JOlaHsd mice [1]; [9]): reduced
- DOI-induced HTRs (C57BL/6JOlaHsd mice [1]; 5 mg/kg i.p., age 6 weeks, one hour before DOI 1 mg/kg): reduced
- DOI-induced HTR frequency (C57BL/6JOlaHsd mice [1]; 5 mg/kg oral (gavage) in self-emulsifying oral formulation, age 3 weeks, two hours before DOI 1 mg/kg i.p.): significantly reduced
- effect to reverse DOI-induced HTR, age 3 weeks vs 6 weeks (C57BL/6JOlaHsd mice [1]; i.p., after 20 min from DOI injection): higher at age 3 weeks than 6 weeks
- effect on DOI-induced HTR frequency, 1 mg/kg vs 5 mg/kg (C57BL/6JOlaHsd mice [1]; oral formulation, age 3 weeks): greater than this of 5 mg/kg
- DOI-induced HTR frequency in CB2 receptor knockout mice ([3]; mouse, in vivo): did not reduce
- frequency of DOI-induced ESR behavior (C57BL/6JOlaHsd mice [6]; i.p., one hour before DOI 1 mg/kg): reduced
- HTR, drug alone (C57BL/6JOlaHsd mice [4]; doses 1-20 mg/kg i.p., age 6 weeks, no DOI): did not induce HTR at any dose
- urge-like response (grooming/ESR), drug alone (C57BL/6JOlaHsd mice [7]): did not induce urge-like response at any dose
- vocal tic-like behavior (number of ultrasonic vocal events) (Sabra mice; SR141716A 5 mg/kg s.c. postnatal day 1-3, drug s.c. at age 13 days, one hour before recording): significantly reduces
- number of buried marbles (C57BL/6JOlaHsd mice [2]; 10 mg/kg i.p.): reduced
- Ki (CB2 receptor): 0.05 µM

Compound: Cc1c(C(=O)NN2CCCCC2)nn(-c2ccc(Cl)cc2Cl)c1-c1ccc(Cl)cc1 [SR141716A]
- vocalization vs control litter mates (Sabra mice; administered to mice pups at the age of one to two days): higher level of vocalization and/or higher number of vocals

— patent publication US20190321355A1, “TREATMENT OF MENTAL, MOVEMENT AND BEHAVIORAL DISORDERS” (priority 2016, published 2019)
